The test system of assay [1] is E. coli, P. aeruginosa, P. cepacia, S. aureus, including MRSA, S. epidermidis, and C. albicans. In kind it is cell-based. The source says:
By “antimicrobial” activity is meant the ability to inhibit the growth of at least one microbial organism selected from the group consisting E. coli, P. aeruginosa, S. aureus and C. albicans, as confirmed by optical density measurement (“OD”).
By “inhibition of growth” is meant reduction or absence of an increase greater than 5% in OD, a dimensionless measure of turbidity that is proportional to the amount of microbial cells present in a sample. For illustrative purposes, a OAB according to the present invention is added to a culture plate on which E. coli is present at a final concentration of about 5×10^3 cfu/ml. The plate is then incubated at about 37° C. for about 24 hours at which time the E. coli is resuspended by shaking, and OD is measured at about 600 nm. Thus, a reduction or absence of an increase greater than 5% in OD confirms the antimicrobial nature of the OAB with respect to E. coli.
Minimum inhibitory concentration (“MIC”) is a method well-known to those of skill in the art for expressing antimicrobial activity. A compound to be tested is serially diluted into growth medium, inoculated with culture and then incubated. The MIC is the lowest dilution of compound that inhibits or prevents growth of the target microorganism.
A further aspect of the present invention is directed to oligomeric acylated biosurfactants having a CMC of less than about 100 ppm in an aqueous environment of MEM Solution that reduces the surface tension of the MEM Solution to less than about […] where the OAB consists essentially of two to nine amino acid residues, at least one of which is charged, and has a MIC of less than 100 ppm for at least two of the following microorganisms: E. coli, P. aeruginosa, P. cepacia, S. aureus, including MRSA, S. epidermidis, and C. albicans. OABs meeting this criterion are selected from the group consisting of: Myr-GR-amide (P300); Myr-KK-amide (P315); Pal-HR-amide (P320); Myr-KK-acid (P347); SEQ ID NO 79 (P367); Myr-GHR-amide (P245); Pal-GHR-amide (P250); Myr-GRK-amide (P303); Pal-G-H—[R]^D-amide (P366); SEQ ID NO 84 (368); SEQ ID NO 58 (P370); SEQ ID NO 59 (P360); SEQ ID NO 60 (P373); SEQ ID NO 61 (P376); SEQ ID NO 62 (P369); SEQ ID NO 63 (P379); SEQ ID NO 64 (P381); SEQ ID NO 65 (P416); SEQ ID NO 66 (P383); and SEQ ID NO 67 (P289).

In assay [2] the test system is metabolic soluble proteins. As to the kind of experiment: CBQCA Protein Quantitation Assay (metabolic soluble protein). Format: cell-based. As to the method:
A first aspect of the present invention is directed to OABs having an ability to increase metabolic soluble proteins by at least about 20%. For purposes of the present invention, metabolic soluble protein is measured using the CBQCA Protein Quantitation Assay from Molecular Probes, Inc. (Eugene, Oreg.). This assay is based on aquinoline-2-carboxaldehyde derivative, which specifically reacts with primary amines to form conjugates capable of electrophoretic or chromatographic analysis. More specifically, in the presence of the cyanide anion, the quinoline-2-carboxaldehyde derivative reacts with primary amines, including those on proteins, and produces a highly-fluorescent emission at 550 nm.

Non-standard residues stand in square brackets, D forms with d. Residues, ends and D or L forms follow the SMILES beside them. *: point of attachment. Palmitoyl = CCCCCCCCCCCCCCCC(=O)*; Myristoyl = CCCCCCCCCCCCCC(=O)*

As for `CCCCCCCCCCCCCCCC(=O)NCC(=O)N[C@@H](Cc1c[nH]cn1)C(=O)N[C@@H](CCCNC(=N)N)C(N)=O` [P250, Pal-GHR-amide] (Palmitoyl-Gly-His-Arg-NH2), the “MIC for at least two of the listed microorganisms” value (from here on “MIC for at least two”) in assay [1] was “less than 100 ppm”.

For `CCCCCCCCCCCCCC(=O)N[C@@H](CC(C)C)C(=O)N[C@@H](CCCCN)C(=O)N[C@@H](C)C(=O)N[C@@H](CCCCN)C(N)=O` [P289, Myr-LKAK-amide] (Myristoyl-LKAK-NH2), the “MIC for at least two” value in assay [1] is recorded as “less than 100 ppm”.

On to `CCCCCCCCCCCCCC(=O)NCC(=O)N[C@@H](CCCNC(=N)N)C(N)=O` [P300, Myr-GR-amide] (Myristoyl-Gly-Arg-NH2), for which, in assay [1], the “MIC for at least two” value is “less than 100 ppm”.

For the molecule `CCCCCCCCCCCCCC(=O)NCC(=O)N[C@@H](CCCNC(=N)N)C(=O)N[C@@H](CCCCN)C(N)=O` [P303, Myr-GRK-amide] (Myristoyl-Gly-Arg-Lys-NH2), the “MIC for at least two” value in assay [1] is “less than 100 ppm”.

`CCCCCCCCCCCCCC(=O)N[C@@H](CCCCN)C(=O)N[C@@H](CCCCN)C(N)=O` [P315, Myr-KK-amide]: the “MIC for at least two” value in assay [1] was “less than 100 ppm”.

As to `CCCCCCCCCCCCCCCC(=O)N[C@@H](Cc1c[nH]cn1)C(=O)N[C@@H](CCCNC(=N)N)C(N)=O` [P320, Pal-HR-amide] (Palmitoyl-His-Arg-NH2), the “MIC for at least two” value in assay [1] is given as “less than 100 ppm”.

`CCCCCCCCCCCCCC(=O)N[C@@H](CCCCN)C(=O)N[C@@H](CCCCN)C(=O)O` [P347, Myr-KK-acid]: the “MIC for at least two” value in assay [1] is reported as “less than 100 ppm”.

Take `CCCCCCCCCCCCCC(=O)N[C@H](CCCCN)C(=O)N[C@@H](CCCCN)C(=O)N[C@H](C)C(=O)N[C@@H](CC(C)C)C(=O)N[C@H](CCCCN)C(N)=O` [P360, Myr-[K]^D-K-[A]^D-L-[K]^D-amide] (Myristoyl-[dK]K[dA]L[dK]-NH2): the “MIC for at least two” value in assay [1] was “less than 100 ppm”.

For `CCCCCCCCCCCCCCCC(=O)NCC(=O)N[C@@H](Cc1c[nH]cn1)C(=O)N[C@H](CCCNC(=N)N)C(N)=O` [P366, Pal-G-H-[R]^D-amide] (Palmitoyl-Gly-His-[dR]-NH2), in assay [1], the “MIC for at least two” value is on record as “less than 100 ppm”.

In the case of `CCCCCCCCCCCCCCCC(=O)N[C@@H](CCCCN)C(=O)N[C@H](CCCCN)C(N)=O` [P367, Pal-K-[K]^D-amide], the “MIC for at least two” value in assay [1] is “less than 100 ppm”.

`CCCCCCCCCCCCCC(=O)N[C@@H](CCCCN)C(=O)N[C@@H](CCCCN)C(=O)N[C@@H](C)C(=O)N[C@@H](CC(C)C)C(=O)N[C@@H](CCCCN)C(=O)N[C@@H](CCCCN)C(N)=O` [P369, Myr-KKALKK-amide] (Myristoyl-KKALKK-NH2): the “MIC for at least two” value in assay [1] is “less than 100 ppm”.

Turning to `CCCCCCCCCCCCCCCC(=O)N[C@@H](CC(C)C)C(=O)N[C@@H](C)C(=O)N[C@@H](CCCCN)C(=O)N[C@@H](CCCCN)C(N)=O` [P370, Pal-LAKK-amide] (Palmitoyl-LAKK-NH2), the “MIC for at least two” value in assay [1] is listed as “less than 100 ppm”.

In the case of `CCCCCCCCCCCCCC(=O)N[C@@H](CCCCN)C(=O)N[C@@H](CCCCN)C(=O)N[C@@H](CO)C(=O)N[C@@H](CC(C)C)C(=O)N[C@@H](CCCCN)C(N)=O` [P373, Myr-KKSLK-amide] (Myristoyl-KKSLK-NH2), the “MIC for at least two” value in assay [1] is recorded as “less than 100 ppm”.

With `CCCCCCCCCCCCCC(=O)N[C@@H](CC(C)C)C(=O)N[C@@H](C)C(=O)N[C@H](C(=O)N[C@@H](CCCCN)C(=O)N[C@@H](CCCCN)C(N)=O)[C@@H](C)CC` [P376, Myr-LAIKK-amide] (Myristoyl-LAIKK-NH2), the “MIC for at least two” value in assay [1] is given as “less than 100 ppm”.

For the molecule `CCCCCCCCCCCCCC(=O)N[C@@H](CCCCN)C(=O)N[C@@H](CCCCN)C(=O)N[C@@H](C)C(=O)N[C@@H](CC(C)C)C(=O)N[C@@H](CCCCN)C(=O)N[C@@H](C)C(N)=O` [P379, Myr-KKALKA-amide] (Myristoyl-KKALKA-NH2), the “MIC for at least two” value in assay [1] is on record as “less than 100 ppm”.

With `CCCCCCCCCCCCCC(=O)N[C@@H](CC(C)C)C(=O)N[C@@H](CCCCN)C(=O)N[C@@H](CCCCN)C(=O)N[C@@H](C)C(=O)N[C@@H](CC(C)C)C(=O)N[C@@H](CCCCN)C(N)=O` [P381, Myr-LKKALK-amide] (Myristoyl-LKKALK-NH2), in assay [1], the “MIC for at least two” value is given as “less than 100 ppm”.

Take `CCCCCCCCCCCCCC(=O)N[C@@H](CO)C(=O)N[C@@H](CC(=O)O)C(=O)NCC(=O)N[C@@H](CCCNC(=N)N)C(N)=O` [P383, Myr-SDGR-amide] (Myristoyl-SDGR-NH2): in assay [1], the “MIC for at least two” value was “less than 100 ppm”.

`CCCCCCCCCCCCCC(=O)N[C@@H](CCCNC(=N)N)C(N)=O` [P391, Myr-R-amide]: in assay [2], the “increases metabolic soluble protein (qualitative)” value is given as “increases metabolic soluble protein”.

For `CCCCCCCCCCCCCC(=O)N[C@H](C(=O)N[C@H](C(=O)N[C@H](C(=O)N[C@@H](CCCCN)C(=O)N[C@@H](CCCCN)C(=O)N[C@@H](CCCCN)C(N)=O)[C@@H](C)CC)[C@@H](C)CC)[C@@H](C)CC` [P416, Myr-IIIKKK-amide] (Myristoyl-IIIKKK-NH2), the “MIC for at least two” value in assay [1] is “less than 100 ppm”.

Myr-III-amide [P420]: the “increase metabolic soluble proteins” value in assay [2] is on record as “at least 20%”.

As to Myr-RH-amide [P393], the “increases metabolic soluble protein (qualitative)” value in assay [2] is “increases metabolic soluble protein”.

Consider Pal-KK-amide [P316], for which the “increases metabolic soluble protein (qualitative)” value in assay [2] is listed as “increases metabolic soluble protein”.

With Pal-RR-amide [P318], the “increases metabolic soluble protein (qualitative)” value in assay [2] was “increases metabolic soluble protein”.

Source of the values: patent US8431523B2, “Oligomeric biosurfactants in dermatocosmetic compositions” (priority 2006, dated 2013).
